Series [1] is described as follows: Cytotoxicity against PHA-stimulated human PBMC assessed as reduction in cell viability at 50 uM by WST-1 cell proliferation assay. The format is cell-based. In general terms: Tetrazolium dyes change colour on reduction, which living cells bring about.
In series [2] the test system is PBMC. The series is described as follows: Cytotoxicity against PHA-stimulated human PBMC assessed as reduction in cell viability at 20 uM by WST-1 cell proliferation assay. The format is cell-based.

Usually inhibition stands for how much of the control response was suppressed. Regarding `COC[C@@H]1[C@@H](c2ccc(OC)c(OC)c2)[C@H]2c3c(c4ccccc4n(C)c3=O)OC(C)(C)[C@@H]12`, the inhibition at 50 µM in series [1] came to 30%. In addition, in series [2], the Activity entry was “Non-toxic”.
